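Five compound concentrations were applied to cells in 96-well plates for 48 hours; endpoints were derived by simple linear interpolation of the resulting dose-response curve. GI50: concentration for 50% inhibition of growth. At the TGI there is no net growth.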
What was measured:
Assay in all cases: NCI-60 cell line screen, 48 h
[1] = test system: HCT-15 colon
[2] = test system: TK-10 renal
[3] = test system: HOP-62 NSCLC
[4] = test system: SF-268 CNS
[5] = test system: OVCAR-3 ovarian
[6] = test system: KM12 colon
[7] = test system: UO-31 renal
[8] = test system: IGROV1 ovarian
[9] = test system: A498 renal
[10] = test system: SF-295 CNS
[11] = test system: MALME-3M melanoma
[12] = test system: MDA-MB-231 breast
[13] = test system: COLO 205 colon
[14] = test system: MDA-MB-435
[15] = test system: SN12C renal
[16] = test system: CCRF-CEM leukemia
[17] = test system: HOP-92 NSCLC
[18] = test system: SR leukemia
[19] = test system: MCF7 breast
[20] = test system: ACHN renal
[21] = test system: OVCAR-8 ovarian
[22] = test system: HCC-2998 colon
[23] = test system: LOX IMVI melanoma
[24] = test system: RXF 393 renal
[25] = test system: NCI-H460 lung
[26] = test system: NCI/ADR-RES ovarian
[27] = test system: SF-539 CNS
[28] = test system: NCI-H522 lung

With OCCNc1nc(Nc2ccc(Cl)c(Cl)c2)nc2ccccc12 the GI50 [1] was 2.84 µM, the TGI [1] was 9.34 µM and the GI50 [2] was 14.3 µM. For the same compound, the TGI [2] was 27.9 µM, the GI50 [3] was 5.39 µM and the TGI [3] was 19.5 µM. For the same compound, the GI50 [4] was 6.78 µM, the TGI [4] was 20.8 µM and the GI50 [5] was 7.51 µM. For the same compound, the TGI [5] was 19.9 µM, the GI50 [6] was 4.19 µM and the TGI [6] was 16.2 µM. The GI50 [7] was 4.23 µM, the TGI [7] was 17.9 µM and the GI50 [8] was 5.14 µM. It also gave a TGI [8] of 20 µM, a GI50 [9] of 1.5 µM and a TGI [9] of 13.9 µM. For the same compound, the GI50 [10] was 6.1 µM, the TGI [10] was 20.2 µM and the GI50 [11] was 4.97 µM. For the same compound, the TGI [11] was 17.5 µM, the GI50 [12] was 1.97 µM and the TGI [12] was 5.4 µM. The GI50 [13] was 1.6 µM, the TGI [13] was 3.07 µM and the GI50 [14] was 7.1 µM. The TGI [14] was 20.2 µM, the GI50 [15] was 5.37 µM and the TGI [15] was 20.7 µM. The GI50 [16] was 3.07 µM, the TGI [16] was 18.1 µM and the GI50 [17] was 2.05 µM. The TGI [17] was 7.51 µM, the GI50 [18] was 2.65 µM and the TGI [18] was 9.67 µM. The GI50 [19] was 1.96 µM, the TGI [19] was 14.6 µM and the GI50 [20] was 4.8 µM. It also gave a TGI [20] of 18.3 µM, a GI50 [21] of 4.79 µM and a TGI [21] of 17.6 µM. The GI50 [22] was 2.52 µM, the TGI [22] was 6.85 µM and the GI50 [23] was 3.38 µM. The TGI [23] was 11.9 µM, the GI50 [24] was 4.45 µM and the TGI [24] was 18.4 µM. The GI50 [25] was 3.71 µM, the TGI [25] was 16.5 µM and the GI50 [26] was 4.91 µM. It also gave a TGI [26] of 20 µM, a GI50 [27] of 5.68 µM and a TGI [27] of 20.6 µM. It also gave a GI50 [28] of 10 µM and a TGI [28] of 24.5 µM.

Source: PubChem BioAssay (NCI)
